# In patent US5597824A, “Analogs of oxetanyl purines and pyrimidines” (Abbott Laboratories, priority 1992, dated 1997):
# Experiments:
# Vero cells = experiment: Cell viability (MTT) of uninfected test-compound control wells; assay type: cell-based, African green monkey; conditions: cell viability reduced by 25%
# Description: Vero cells were pregrown as monolayers in wells of COSTAR 96-well tisue culture plates using suitable cell culture media. Stock viruses were pretitered according to the method of Reed and Muench (Amer. J. Hyg. 27 493 (1938)) and diluted in cell culture medium to yield 32 CCID50 (cell culture infectious dose, 50%) units per 0.1 mL. Antiviral assays were designed to test six concentrations of each compound, from cytotoxic to noncytotoxic levels, in triplicate against each of the challenge viruses in microtiter plate wells containing cell monolayers. To each of the replicate cell cultures were added 0.1 mL of the test-compound solution and 0.1 mL of virus suspension. Two compounds were evaluated per plate. The following controls were included:
# (3) Test-compound cytotoxicity controls containing uninfected, test-compound treated cells;
# The covered plates were incubated at 37° C. in a humidified atmosphere containing 2% CO2. When cytopathogenic effect (CPE) in untreated virus control wells reached 100%, 20 μL of 3-(4,5-dimethyl-thiazol-2-yl)-2,5-diphenyl tetrazolium bromide (MTT) (dissolved in PBS at 5 mg/mL) was pipetted into each of the plate wells. The plates were incubated at 37° C. for six hours; then 40 μL of 30% SDS (in 0.02N HCl) was added to each well. After overnight incubation at 37° C. the blue color or the MTT formazan was measured spectrophotometrically at 570 nm. The optical density (OD) value of each culture is a function of the amount of formazan produced which is proportional to the number of viable cells. A computer program was utilized to calculate the percent (CPE) reciprocal of % CPE reduction) of the virus-infected wells and % cell viability of the uninfected test-compound control wells.
# The IC50 value is the minimum test-compound concentration (μg/mL) that inhibited CPE by 50%, calculated by using a regression analysis program for semilog curve fitting. The TC25 value is the minimum test-compound concentration (μg/mL) that reduced cell viability by 25%.
# [1] = test system: Herpes simplex type 2 (HSV-2) strain MS; experiment: CPE-inhibition assay, HSV-2 strain MS in Vero cells; assay type: cell-based, Herpes simplex virus type 2; conditions: HSV-2 (MS), minimum cytotoxic concentration / ID50
# Description: (§1) The challenge viruses were propagated and assayed in cells that were pregrown as monolayer cultures in plastic tissue culture flasks and 96-well plates, using cell culture media appropriate for the host cell cultures. The following viruses and host cell cultures were employed:
# (§2) green monkey kidney (Vero)
# (§3) On the day of use, a weighed sample of each compound to be evaluated was dissolved and diluted in serial 10^0.5 dilutions in the culture medium appropriate for each virus-host cell system.
# Mammalian cells were pregrown as monolayers in wells of COSTAR 96-well tissue culture plates using suitable cell culture media. […]
# (§4) Antiviral activity was determined by calculating the degree of inhibition of virus-induced CPE in drug-treated, virus-infected cell cultures by means of a virus rating (VR). The VR is a standard weighted measurement of antiviral activity taking into account both the degree of CPE inhibition and drug cytotoxicity, and is determined by a modification of the method of Ehrlich et al. (Ann. N.Y. Acad. Sci. 130: 5-16, 1965) as described below. […]
# (§5) The VR was calculated as 0.1 of the sum of the numerical differences between the recorded CPE grade of each test well and that of the corresponding virus control in the culture plate. […]
# [2] = test system: Herpes simplex type 1 (HSV-1) strain E-377; experiment: CPE-inhibition assay, HSV-1 strain E-377 in Vero cells; assay type: cell-based, Herpes simplex virus type 1; conditions: HSV-1 (E-377), minimum cytotoxic concentration / ID50
# Description: as §1, §2, §3
# Mammalian cells were pregrown as monolayers in wells of COSTAR 96-well tissue culture plates using suitable cell culture media. Stock viruses were pretitered according to the method of Reed and Muench (Amer. J. Hyg. 27:493-497, 1938) and diluted in cell culture medium to yield 32 CCID50 (cell culture infectious dose, 50%) units per 0.1 ml. Antiviral assays were designed to test seven concentrations of each compound, from cytotoxic to noncytotoxic levels, in triplicate against each of the challenge viruses in microtiter plate wells containing suitable cell monolayers. To each of the replicate cell cultures were added 0.1 ml of the test drug solution and 0.1 ml of virus suspension. Cell controls containing medium alone, virus controls containing medium and virus, and drug cytotoxicity controls containing medium and each drug concentration were run simultaneously with the test samples assayed in each experiment. […]
# as §4, §5
# [3] = test system: Human Cytomegalovirus (HCMV) strain AD169; experiment: Virus yield reduction assay, HCMV in MRC5 cells; assay type: cell-based
# Description: Human diploid embryonic lung (MRC5) cells were grown in 35 mm wells of 6-well tissue culture plates. Subconfluent cell monolayers were rinsed with phosphate-buffered saline (PBS) and were exposed to 0.5 ml/well of HCMV (strain AD169) suspension for 1.5 hours at 37° C. The virus suspension was diluted in MEM+2% fetal bovine serum (FBS) to yield a multipicity of infection (MOI) of approximately 0.1 plaque forming units (PFU)/cell. Following the virus adsorption period, the inocula were removed and infected cell layers were rinsed with PBS. Aliquiots (2.0 ml) of each test drug concentration (dissolved in MEM supplemented with 2% FBS) were dispensed into triplicate cell cultures: two virus-infected cultures and one uninfected cytotoxicity control culture (exposed to medium without virus for 1.5 hours). Untreated virus-infected control cultutres and untreated, uninfected cell control cutures were fed with medium alone. The culture plates were incubated at 37° C. in a humidified atmosphere of 2% CO2 in air. All cell culture fluids were replaced with fresh drug and medium 48 hours postinfection (p.i.). On Day 6 p.i., the cell layers were examined microscopically for cytopathogenic effect (CPE) and drug cytotoxicity. The test and virus control cultures were then harvested by subjecting the cell layers to one cycle of freeze-thawing. The cellular material was scraped into the ambient medium and the contents from replicate cultures were pooled, dispensed into cryotubes and stored at -135° C. The harvested test and virus control samples were thawed and the infectious virus yield was determined by plaque assay in MRC5 cells grown in 12-well cluster plates. Inhibiton of HCMV replication by each test compound was determined by comparing the progeny virus yields in the drug-treated cultures with the progeny virus yeild in the untreated, virus-infected control cultures.
structure (smiles),measurement,setting,value
"C=Cc1cn([C@@H]2O[C@H](CO)[C@H]2CO)c(=O)[nH]c1=O [Example 61, 1-([2'R, 3'R, 4'S]-3',4'-Bis(hydroxmethyl)-2'-oxetanyl)-5-vinyluracil]",TC25,Vero cells; HSV-2 (MS) line,≥ 254 µg/mL
"Nc1ccn([C@@H]2O[C@H](CO)[C@H]2CO)c(=O)n1 [Example 22, 1-([2'R,3'R,4'S]-3',4'-Bis(hydroxmethyl)-2'-oxetanyl)cytosine]",TI (Therapeutic Index),[1],9.7
same,TI (Therapeutic Index),[2],13.1
same,HCMV yield,[3]; 0.032 μg/ml,3.8 log10 PFU/ml
same,HCMV yield,[3]; 0.1 μg/ml,3.1 log10 PFU/ml
same,HCMV yield,[3]; 0.32 μg/ml,2.6 log10 PFU/ml
same,HCMV yield,[3]; 1.0 μg/ml,0.4 log10 PFU/ml
same,HCMV yield,[3]; 3.2 μg/ml,< 0.1 log10 PFU/ml
same,HCMV yield,[3]; 10 μg/ml,< 0.1 log10 PFU/ml
"O=c1[nH]c(=O)n([C@@H]2O[C@H](CO)[C@H]2CO)cc1C=CI [Example 49, 1([2'R,3'R,4'S]-3',4'-n-Bis(hydroxmethyl)-2'-oxetanyl)-5-(2-iodo-1-vinyl)uracil]",TC25,Vero cells; HSV-1 (E-377) line,> 380 µg/mL
"O=c1[nH]c(=O)n([C@@H]2O[C@H](CO)[C@H]2CO)cc1C=CBr [Example 44, 1-([2'R, 3'R, 4'S]-3', 4'-Bis(hydroxmethyl)-2'-oxetanyl)-5-(2-bromo-1-vinyl)uracil]",TC25,Vero cells; HSV-1 (E-377) line,289 µg/mL
"O=c1ccn([C@@H]2O[C@H](CO)[C@H]2CO)c(=O)[nH]1 [Example 23, 1-([2'R,3'R,4'S]-3',4'-Bis(hydroxmethyl)-2'-oxetanyl)uracil]",TI (Therapeutic Index),[2],1.0
same,HCMV yield,[3]; 3.2 μg/ml,4.7 log10 PFU/ml
same,HCMV yield,[3]; 10 μg/ml,4.5 log10 PFU/ml
same,HCMV yield,[3]; 32 μg/ml,4.4 log10 PFU/ml
same,HCMV yield,[3]; 100 μg/ml,4.0 log10 PFU/ml
same,HCMV yield,[3]; 320 μg/ml,3.0 log10 PFU/ml
"O=c1[nH]c(=O)n([C@@H]2O[C@H](CO)[C@H]2CO)cc1C=CCl [Example 50, 1-([2'R,3'R,4'S]-3',4'-Bis(hydroxymethyl)-2'-oxetanyl)-5-(2-chloro-1-vinyl)uracil]",TC25,Vero cells; HSV-1 (E-377) line,> 289 µg/mL
"Cc1cn([C@@H]2O[C@H](CO)[C@H]2CO)c(=O)[nH]c1=O [Example 21, 1-([2'R,3'R,4'S]-3',4'-Bis(hydroxmethyl)-2'-oxetanyl)5-methyluracil]",TI (Therapeutic Index),[1],> 7.2
same,TI (Therapeutic Index),[2],1552
"O=c1[nH]c(=O)n([C@@H]2O[C@H](CO)[C@H]2CO)cc1Br [Example 43, 1-([2'R, 3'R, 4'S]-3', 4'-Bis(hydroxmethyl)-2'-oxetanyl)-5-bromouracil]",TC25,Vero cells; HSV-1 (E-377) line,18.4 µg/mL
same,TC25,Vero cells; HSV-2 (MS) line,> 307 µg/mL
"O=c1[nH]c(=O)n([C@@H]2O[C@H](CO)[C@H]2CO)cc1I [Example 42, 1-([2'R, 3'R, 4'S]-3', 4'-Bis(hydroxmethyl)-2'-oxetanyl)-5-iodouracil]",TC25,Vero cells; HSV-1 (E-377) line,> 354 µg/mL
same,TC25,Vero cells; HSV-2 (MS) line,> 354 µg/mL
